Our source for the pKb and solubility in alcohols values is patent US4946995A, “Process for the production of thiocarbohydrazide” (Mobay Corporation, priority 1989, dated 1990).

The conditions of series [1]: footnote of Table 2, cited from earlier work.
A short description of series [2]: solubility of HDTC in alcohols. It is filed as physicochemical. As to conditions: alcohols (methanol, ethanol and isopropanol). The protocol:
The HDTC may be made by any of the methods known to those in the art. One relatively simple method for producing HDTC in quantitative yields is to react carbon disulfide with hydrazine in a molar ratio of 1:2 in an alcohol at 0°-30° C. Appropriate alcohols include methanol, ethanol and isopropanol. […] If hydrazine hydrate is used to produce the HDTC, the water present in the alcohol upon completion of the reaction may be removed by distillation.

Like-named read-outs stand apart in the source and are kept apart here.

With `CN(C)c1ccncc1` [DMAP, dimethylaminopyridine], in series [1] (pKb), the pKb (as a rule, the negative decadic logarithm of the Kb, by convention in mol/L) is reported as 4.3.

With `C1CN2CCN1CC2` [DABCO, diazabicyclooctane], the pKb in series [1] (pKb) was 3.0; in series [1] (second printed pKb), 8.7.

Regarding `NNC(=S)S` [HDTC, Hydrazinium-dithiocarbazinate], the solubility in alcohols result in series [2] was “virtually insoluble”.

In the case of `CCN(CC)CC` [TEA, triethylamine], in series [1] (pKb), the pKb is on record as 3.35.
